In assay [1] the test system is Hh pathway (Gli-RE reporter, activated by SMO agonist SAG). The assay can be described thus: Gli-luciferase reporter assay in SAG-treated NIH 3T3 Shh-light II cells. In kind it is cell-based. The procedure:
FIG. 4. Effect of active natural compounds identified by the pharmacophore screening in a luciferase assay, where the gene reporter was Gli1 and the pathway was activated by the SAG molecule, a potent SMO agonist. Natural compounds were tested at three different concentrations (1, 10 and 20 μM) and their activity was compared to that of cyclopamine, the natural compound reference inhibitor of the Hedgehog pathway, which was tested at the same doses (1, 10 and 20 μM). On both graphs the activity of cyclopamine is reported as reference standard. (A) cyclopamine, 2,4,5,3′,4′-penta-Ome chalcone and Auriculasin; (B) cyclopamine, Martinoside, Jaceidin, 2,4,5,3′,4′-penta-Ome chalcone, 3,4-di-MDO-2′,4′,5′-tri-Ome dihydrochalcone.
FIG. 6. Dose-response curve of Glabrescione B in SAG (Smoothened Agonist, 200 nM) treated NIH 3T3 Shh-light II (Shh-LII) cells. Treatment time was 48 h and normalization was against Renilla luciferase. Shown is the fold increase of Hh reporter activity compared with cells not treated with SAG.
FIG. 19. Effect of derivatives NT8, NT9, NT10, NT11, NT12, NT13, NT14 and NT15 on the Hedgehog pathway, measured at 5 μM dose in a luciferase assay where the gene reporter was Gli1 and the pathway was activated by the SAG molecule, a potent SMO agonist. […]
To investigate the inhibitory properties of Glabrescione B on Hh signaling, the inventors examined its effects in NIH 3T3 Shh-light II (Shh-LII) cells stably incorporating an Hh-responsive (Gli-RE) reporter, in which induction of the pathway occurs following treatment with the SMO agonist SAG. […] The IC50 in this assay was 0.8 μM.
The ability of Glabrescione B to suppress Hh signaling was assessed in a cellular context of Hh pathway induction. To this end, the antagonist properties of Glabrescione B were determined in Shh Light II (ATCC, cat. # CRL-2795), a murine fibroblast NIH 3T3 cell line. These cells, stably incorporating the Gli-luc reporter and the pRL-TK Renilla reniformis (as described in Taipale, Chen et al. 2000) are a standard tool used to assay Hh pathway activity. The cells that reached the confluence were treated for 48 h with the SMO agonist SAG (200 nM, Alexis, cat. #ALX-270-426-M001) in absence or in presence of Glabrescione B at the amount indicated in FIG. 6. […] Control cells were treated with only DMSO (0.5%, SERVA, cat. #39757.02) Determination of luciferase activities was carried out using the Dual-Luciferase assay according to manufacturer's instructions (Dual-Luciferase® Reporter assay system; Promega, cat. # E1980). All presented data are firefly luciferase activity reported to the Renilla control activity. […] IC50 of 0.8 μM, represents the concentration of Glabrescione B necessary to have fifty percent of inhibition.
Evaluation of the Hh inhibitory activity of these molecules at 5 μM was preliminarily conducted in vitro on Shh Light II cells (see example 2).
In general terms: A reporter such as luciferase makes a cellular process visible.

The subject of assay [2] is Cancer stem cells (CSCs) isolated from murine Ptch+/− MB. The assay can be described thus: Gli1 mRNA in MB cancer stem cells (neurospheres). The class given is cell-based. The following applies: 48 h, quantitative RT-PCR. As to the method:
FIG. 13. […] Gli1 mRNA levels were determined by quantitative RT-PCR using HPRT as normalizer.
Hh activity preferentially associates to stemness features. For this reason, the Hh pathway antagonist Glabrescione B has also been investigated for its ability to modulate the behavior of MB cancer stem cells (CSCs).
It has been described that Hh activity preferentially associates to stemness features. In order to determine whether Glabrescione B also modulates the behavior of MB cancer stem cells (CSCs), neurospheres isolated from murine Ptch^+/− MB were treated with Glabrescione B for 48 h and the levels of Gli1 were determined by quantitative RT-PCR. Murine MBs were isolated from Ptch1^+/− mice (Goodrich, Milenkivic et al. 1997). Tissues were collected in HBSS supplemented with 0.5% glucose and penicillin-streptomycin, grossly triturated with serological pipette and treated with DNAse I to a final concentration of 0.04% for 20 min. Finally, cells aggregates were mechanically dissociated using pipettes of decreasing bore size to obtain a single cell suspension. […]

Assay [3] relates to Gli1-GST fusion protein. Kind of assay: NMR relaxation speed of Glabrescione B protons in presence of Gli1-GST. In kind it is binding. The following applies: 0.412 mM. As to the method: A sample of Glabrescione B 0.412 mM in DMSO-d6 was prepared and added to 20 μL of a solution of Gli1-GST (Glutathione S-transferase) fusion protein at 5 μg/μL, providing a molar ratio of Glabrescione B/Gli1-GST of 150:1. […] In experimental conditions, Glabrescione B protons experiencing the most significant perturbation of the relaxation speed, due to the presence of Gli1-GST, belong to the ring A of the isoflavone nucleus, namely aromatic protons H1, H3 and those belonging to methoxyl groups 2′ and 4′.

Structures are written as SMILES. “Also recorded” adds a separate entry of the source. Some results are limits rather than exact numbers.

As for `COc1cc(OC)c2c(=O)c(-c3ccc(OCC=C(C)C)c(OCC=C(C)C)c3)coc2c1` [Glabrescione B, 3-(3′,4′-bis(3-methylbut-2-enyloxy)phenyl)-5,7-dimethoxy-4H-chromen-4-one], the “effect on Hh pathway in luciferase assay” value in assay [1] (Gli1 gene reporter, pathway activated by SAG, cyclopamine as reference) is “inhibit the Hh pathway; also recorded: most potent lead”. In addition, in assay [1] (Mus musculus, SAG 200 nM, 48 h, normalized to Renilla, read-out: IC50 of luciferase reporter activity (Hh signaling)), the IC50 (as a rule, the point on the concentration scale where inhibition reaches its midpoint) was determined as 800 nM. The inhibition (commonly how much of the control response was suppressed) at 5 µM in assay [1] (Mus musculus, at 5 μM, highly active class) is greater than 50%. For the same compound, in assay [2], the “Gli1 mRNA levels in MB CSCs” value was “reduction of Gli1 mRNA levels”. The “Normalized relaxation speed ΔR/Rf, GlaB:Gli1-GST 1:150” value in assay [3] (proton 1) was determined as 0.341; in assay [3] (proton 2′) it was 0.267; in assay [3] (proton 3) it was 0.206; in assay [3] (proton 4′), 0.482; in assay [3] (proton 8) it was 0.028; in assay [3] (proton 11) it was 0.286. Moreover, the “Normalized relaxation speed ΔR/Rf, GlaB:Gli1-GST 1:150” value in assay [3] (proton 12) was determined as 0; in assay [3] (proton 15), 0.329; in assay [3] (proton 19), 0.
